Among the data in PubChem BioAssay AID588620 (NMMLSC, 2011) are fluorescence response, % of control values, retold here.

The experiment is described as follows: concentration-dependent intrinsic compound fluorescence, S. cerevisiae AD/pABC3, flow cytometry, Cherry Pick1 hits, artefact control for antifungal efflux pump inhibitor project, dose response (AID 588620).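 Also: red emission of unstained cells excited at 488 nm measured in PE-Texas Red channel; cell median fluorescence as percent of DMSO wells so 100% equals vehicle baseline.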 As to conditions: S. cerevisiae AD/pABC3 compound autofluorescence, flow cytometry; at 33.1 µM (top of the series). A general note: In flow cytometry, cells or beads pass a laser one at a time.

Calls of active or inactive are those of the source.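 The calls were made as follows: active = fitted half-maximal concentration below 30 µM for cell fluorescence in pump-free yeast, so likely self-fluorescent; inactive = the rest.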

Turning to `COc1ccc(-c2sc3ccc(OC)cc3c2-c2ccc(OCCN3CCOCC3)cc2)cc1`, the fluorescence response, % of control is 96.3% (inactive).
As for `Cc1cccc(C)c1NC(=O)C1CC2CCC1C2` (stereo not drawn), the fluorescence response, % of control was 102% (inactive).
In the case of `Cc1ccc(Cn2nnc3c(=O)[nH]c(C4CCN(S(=O)(=O)c5ccccc5)CC4)nc32)cc1` it was 87.4% (inactive); in that of `O=C(Oc1ccc2c(=O)c(Oc3ccc4ccccc4c3)coc2c1)c1cncc(Br)c1`, 90.5% (inactive); in that of `COc1ccccc1-c1sc2cc3c(cc2c1-c1ccc(OCCN2CCOCC2)cc1)OCO3`, 87.6% (inactive).
With `COc1ccc(C2CC(c3ccccc3C(F)(F)F)=NN2c2ccc(S(N)(=O)=O)cc2)cc1` (stereo not drawn) the figure was 106% (inactive); with `COc1cc(OC)cc(-c2sc3ccc(OC)cc3c2-c2ccc(OCCN3CCOCC3)cc2)c1`, 111% (inactive); with `O=C1C(Cc2ccccc2)Nc2ncnc(N3CCN(c4ccccc4)CC3)c2N1Cc1ccc(Br)cc1` (stereo not drawn), 116% (inactive).
For `CCCCCCCCCCOC(=O)Cn1c(COc2cccc(C)c2)[n+](C)c2ccccc21`, the fluorescence response, % of control was 105% (inactive).
In the case of `COc1cccc(C(=O)NC2CC(C)(C)Cc3c2cnn3-c2cccc(F)c2)c1OC` (stereo not drawn) it was 121% (inactive); in that of `CCN(CC)c1ccc(/C=C/c2cc(-c3ccccc3)c3ccccc3n2)cc1`, 406% (inactive); in that of `CCOC(=O)c1ccc(S(=O)(=O)NNS(=O)(=O)c2ccc(C)cc2)cc1`, 112% (inactive).
With `O=C1c2cc(Cl)ccc2OC2(CCNCC2)C12CC(c1ccc(Cl)cc1)=NO2` (stereo not drawn) the figure was 106% (inactive).
In the case of `CC(C)C(=O)N1CCC2(CC1)Oc1ccc(F)cc1C(=O)C21CC(c2ccccc2)=NO1` (stereo not drawn), the fluorescence response, % of control is 115% (inactive).
With `C[C@@]12C(=O)Nc3ccc(Cl)cc3C(=O)N1[C@H]1c3cc(Cl)ccc3OC[C@@H]1[C@@H]2c1ccccc1`, the fluorescence response, % of control is 103% (inactive).
In the case of `COc1ccc2sc(-c3ccccc3OC)c(-c3ccc(OCCN4CCOCC4)cc3)c2c1` it was 81.8% (inactive).
In the case of `C[C@@]12C(=O)Nc3ccc(F)cc3C(=O)N1[C@H]1c3cc(Cl)ccc3OC[C@@H]1[C@@H]2c1ccccc1` it was 104% (inactive); in that of `CC1Cc2cc(S(=O)(=O)NCc3ccccc3)ccc2N1C(=O)C1CCC1` (stereo not drawn), 89% (inactive).
Consider `CN(C)CCN(C(=O)c1ccc(S(=O)(=O)N2CCc3ccccc32)cc1)c1nc2ccc(F)cc2s1`, for which the fluorescence response, % of control is 196% (inactive).
With `Cc1c(NC(=O)c2ncn[nH]2)cccc1-c1nc2ccccc2s1` the figure was 109% (inactive).
With `Cc1cc(O)c(C(C)C)cc1C1(c2cc(C(C)C)c(O)cc2C)OC(=O)c2ccccc21` the figure was 99.8% (inactive).
In the case of `O=[N+]([O-])c1cnc2ccc3ccccc3c2c1` it was 122% (inactive).
As for `NC(=O)c1nc(-c2ccco2)nc2c1[nH]c(=O)n2-c1ccc(Cl)c(Cl)c1`, the fluorescence response, % of control is 112% (inactive).
For `Cc1cc(C(=O)COC(=O)c2ccc[nH]c2=O)c(C)n1-c1ccc(F)cc1`, the fluorescence response, % of control is 102% (inactive).
As for `O=[N+]([O-])c1cc(/C=N\Nc2ccccn2)ccc1Cl`, the fluorescence response, % of control is 96.1% (inactive).
In the case of `COc1ccc(CC(=O)Nc2ccc(NC(=O)c3ccc(Br)cc3)cc2)cc1OC` it was 134% (inactive); in that of `COc1ccc(-c2sc3cc(OC)ccc3c2-c2ccc(OCCN3CCOCC3)cc2)cc1`, 153% (inactive).
In the case of `O=C(COC(=O)c1ccc(S(=O)(=O)N2CCCCC2)cc1)NCc1ccco1` it was 91.7% (inactive).
As for `Cc1cccc(NC(=O)c2nc[nH]c2C(=O)N[C@H](C)c2ccccc2)c1`, the fluorescence response, % of control was 92.4% (inactive).
In the case of `Cc1ccc(-n2c(-c3ccc(Br)cc3)c[n+]3c2CCc2ccc4cccnc4c2-3)cc1` it was 92.4% (inactive); in that of `c1ccc(-c2ccc3c(c2)c2c4n3CCN=C4CCC2)cc1`, 138% (inactive).
On to `Cc1nn(CC(=O)NCc2cccs2)c(=O)c2nn(-c3ccccc3)c(C)c12`, for which the fluorescence response, % of control was 99% (inactive).
Turning to `O=C(COC(=O)c1c(Cl)cccc1Cl)NCC1CCCO1` (stereo not drawn), the fluorescence response, % of control is 106% (inactive).
In the case of `COc1ccc(OC)c(-c2nc(C(N)=O)c3[nH]c(=O)n(-c4ccc(F)cc4)c3n2)c1` it was 104% (inactive); in that of `COc1cccc(C2CC(c3ccccc3)=NN2S(=O)(=O)c2ccc(C)cc2)c1OC` (stereo not drawn), 108% (inactive).
In the case of `O=C(NNc1cc(N2CCCC2)nc(N2CCCC2)n1)c1ccc([N+](=O)[O-])cc1` it was 95.7% (inactive); in that of `N#CCCN1CCN(C(=S)c2ccc(-c3ccc(Cl)c(Cl)c3)o2)CC1`, 75.6% (inactive).
With `Cc1ccc(C)c(Cn2nnc3c(=O)[nH]c(C4CCN(S(=O)(=O)c5ccc(S(=O)(=O)N(C)C)cc5)CC4)nc32)c1` the figure was 119% (inactive); with `O=C(C[n+]1cc(-c2ccc(Cl)c(Cl)c2)n2c1CCC2)N1c2ccccc2Sc2ccccc21`, 92.7% (inactive); with `CSc1ccccc1NC(=O)c1cc(-c2ccc3c(c2)OCO3)on1`, 101% (inactive).
As to `O=C(CCCc1ccccc1)Nc1cccc([N+](=O)[O-])c1`, the fluorescence response, % of control was 86.2% (inactive).
Take `N#CC(C(=O)NCc1ccccc1)c1nc2ccccc2nc1N1CCCC1` (stereo not drawn): the fluorescence response, % of control is 102% (inactive).
With `O=C(C1CCC1)N1CCc2cc(S(=O)(=O)Nc3ccc4c(c3)OCCO4)ccc21` the figure was 116% (inactive); with `COc1ccccc1CNS(=O)(=O)c1ccc2c(c1)CC(C)N2C(=O)C1CCC1` (stereo not drawn), 85.7% (inactive).
As for `CCCCCc1cc(=O)oc2c(C(CCN3CCCC(C)C3)c3ccc(N(C)C)cc3)c(OC)cc(OC)c12` (stereo not drawn), the fluorescence response, % of control was 94.5% (inactive).
Turning to `COc1cc(CNC(C)(C)CO)cc(Br)c1OCc1ccc(Cl)cc1`, the fluorescence response, % of control is 130% (inactive).
Consider `COc1cc2c(=O)n(Cc3ccco3)c(=O)n(CC(=O)c3cccc(Br)c3)c2cc1OC`, for which the fluorescence response, % of control is 86.2% (inactive).
Consider `Cc1c(CCOC(=O)CC23CC4CC(CC(C)(C4)C2)C3)sc[n+]1Cc1ccc([N+](=O)[O-])cc1`, for which the fluorescence response, % of control was 83.6% (inactive).
With `COc1ccc(/C=C2\SC(c3ccc(C)cc3)=NC2=O)cc1OC` the figure was 289% (inactive); with `Cc1ccc(Cl)cc1N1CCN(c2cccc[n+]2C)CC1`, 95.1% (inactive).
In the case of `CCOC(=O)C(NC(=O)CC)(Nc1ccccc1)C(F)(F)F` (stereo not drawn) it was 103% (inactive); in that of `Cc1ccc(CNC(=O)C(=O)NCC2OCCN2S(=O)(=O)c2ccc(Br)cc2)cc1` (stereo not drawn), 88.1% (inactive).
With `CCc1ccc(N=C2NC(=O)/C(=C/c3cc(OC)c(O)c(OC)c3)S2)cc1` the figure was 419% (inactive).
